Assays:
Type in all cases: functional
Staphylococcus aureus [1] = assay: Antibacterial activity against Staphylococcus aureus clinical isolate 12 assessed as growth inhibition at pH 9 after 16 to 18 hr by NCCLS agar dilution method
Staphylococcus aureus [2] = assay: Antibacterial activity against Staphylococcus aureus clinical isolate 8 assessed as growth inhibition at pH 7 after 16 to 18 hr by NCCLS agar dilution method
Staphylococcus aureus [3] = assay: Antibacterial activity against Staphylococcus aureus clinical isolate 7 assessed as growth inhibition at pH 7 after 16 to 18 hr by NCCLS agar dilution method
Staphylococcus aureus [4] = assay: Antibacterial activity against Staphylococcus aureus clinical isolate 3 assessed as growth inhibition at pH 7 after 16 to 18 hr by NCCLS agar dilution method
Staphylococcus aureus [5] = assay: Antibacterial activity against Staphylococcus aureus clinical isolate 2 assessed as growth inhibition at pH 7 after 16 to 18 hr by NCCLS agar dilution method
Staphylococcus aureus [6] = assay: Bactericidal activity against Staphylococcus aureus clinical isolate 5 after 24 hr; conditions: isolate 5, 24 h
Staphylococcus aureus [7] = assay: Antibacterial activity against Staphylococcus aureus clinical isolate 1 assessed as growth inhibition at pH 9 after 16 to 18 hr by NCCLS agar dilution method
Staphylococcus aureus [8] = assay: Antibacterial activity against Staphylococcus aureus clinical isolate 20 assessed as growth inhibition at pH 7 after 16 to 18 hr by NCCLS agar dilution method
Staphylococcus aureus [9] = assay: Antibacterial activity against Staphylococcus aureus clinical isolate 19 assessed as growth inhibition at pH 7 after 16 to 18 hr by NCCLS agar dilution method
Staphylococcus aureus [10] = assay: Antibacterial activity against Staphylococcus aureus clinical isolate 16 assessed as growth inhibition at pH 7 after 16 to 18 hr by NCCLS agar dilution method
Staphylococcus aureus [11] = assay: Antibacterial activity against Staphylococcus aureus clinical isolate 15 assessed as growth inhibition at pH 7 after 16 to 18 hr by NCCLS agar dilution method
Staphylococcus aureus [12] = assay: Antibacterial activity against Staphylococcus aureus clinical isolate 14 assessed as growth inhibition at pH 7 after 16 to 18 hr by NCCLS agar dilution method
Staphylococcus aureus [13] = assay: Antibacterial activity against Staphylococcus aureus clinical isolate 11 assessed as growth inhibition at pH 7 after 16 to 18 hr by NCCLS agar dilution method
Staphylococcus aureus [14] = assay: Antibacterial activity against Staphylococcus aureus clinical isolate 10 assessed as growth inhibition at pH 7 after 16 to 18 hr by NCCLS agar dilution method
Staphylococcus aureus [15] = assay: Antibacterial activity against Staphylococcus aureus clinical isolate 9 assessed as growth inhibition at pH 7 after 16 to 18 hr by NCCLS agar dilution method
Staphylococcus aureus [16] = assay: Antibacterial activity against Staphylococcus aureus clinical isolate 10 assessed as growth inhibition at pH 5 after 16 to 18 hr by NCCLS agar dilution method
Staphylococcus aureus [17] = assay: Antibacterial activity against Staphylococcus aureus clinical isolate 9 assessed as growth inhibition at pH 5 after 16 to 18 hr by NCCLS agar dilution method
Staphylococcus aureus [18] = assay: Antibacterial activity against Staphylococcus aureus clinical isolate 24 assessed as growth inhibition at pH 9 after 16 to 18 hr by NCCLS agar dilution method
Staphylococcus aureus [19] = assay: Antibacterial activity against Staphylococcus aureus clinical isolate 21 assessed as growth inhibition at pH 9 after 16 to 18 hr by NCCLS agar dilution method
Staphylococcus aureus [20] = assay: Antibacterial activity against Staphylococcus aureus clinical isolate 16 assessed as growth inhibition at pH 9 after 16 to 18 hr by NCCLS agar dilution method
Staphylococcus aureus [21] = assay: Antibacterial activity against Staphylococcus aureus clinical isolate 15 assessed as growth inhibition at pH 9 after 16 to 18 hr by NCCLS agar dilution method
Staphylococcus aureus [22] = assay: Antibacterial activity against Staphylococcus aureus clinical isolate 6 assessed as growth inhibition after 16 to 18 hr by NCCLS agar dilution method
Staphylococcus aureus [23] = assay: Antibacterial activity against Staphylococcus aureus clinical isolate 5 assessed as growth inhibition after 16 to 18 hr by NCCLS agar dilution method
Staphylococcus aureus [24] = assay: Antibacterial activity against Staphylococcus aureus clinical isolate 3 assessed as growth inhibition after 16 to 18 hr by NCCLS agar dilution method
Staphylococcus aureus [25] = assay: Antibacterial activity against Staphylococcus aureus clinical isolate 2 assessed as growth inhibition after 16 to 18 hr by NCCLS agar dilution method
Staphylococcus aureus [26] = assay: Antibacterial activity against Staphylococcus aureus clinical isolate 6 assessed as growth inhibition at pH 9 after 16 to 18 hr by NCCLS agar dilution method
Staphylococcus aureus [27] = assay: Antibacterial activity against Staphylococcus aureus clinical isolate 5 assessed as growth inhibition at pH 9 after 16 to 18 hr by NCCLS agar dilution method
Staphylococcus aureus [28] = assay: Antibacterial activity against Staphylococcus aureus clinical isolate 4 assessed as growth inhibition at pH 9 after 16 to 18 hr by NCCLS agar dilution method
Helicobacter pylori [29] = assay: Antibacterial activity against Helicobacter pylori 05-14 assessed as growth inhibition after 16 to 18 hr NCCLS agar dilution method
Helicobacter pylori [30] = assay: Antibacterial activity against Helicobacter pylori 05-2 assessed as growth inhibition after 16 to 18 hr NCCLS agar dilution method
Helicobacter pylori [31] = assay: Antibacterial activity against Helicobacter pylori 05-1 assessed as growth inhibition after 16 to 18 hr NCCLS agar dilution method
Pseudomonas aeruginosa = assay: Antibacterial activity against Pseudomonas aeruginosa ATCC 27853 assessed as growth inhibition after 16 to 18 hr NCCLS agar dilution method
Escherichia coli = assay: Antibacterial activity against Escherichia coli ATCC 25922 assessed as growth inhibition after 16 to 18 hr NCCLS agar dilution method
Helicobacter pylori [32] = assay: Antibacterial activity against Helicobacter pylori 06-6 assessed as growth inhibition after 16 to 18 hr NCCLS agar dilution method
Helicobacter pylori [33] = assay: Antibacterial activity against Helicobacter pylori 06-5 assessed as growth inhibition after 16 to 18 hr NCCLS agar dilution method
Staphylococcus aureus [34] = assay: Antibacterial activity against Staphylococcus aureus clinical isolate 20 assessed as growth inhibition at pH 5 after 16 to 18 hr by NCCLS agar dilution method
Staphylococcus aureus [35] = assay: Antibacterial activity against Staphylococcus aureus clinical isolate 19 assessed as growth inhibition at pH 5 after 16 to 18 hr by NCCLS agar dilution method
Staphylococcus aureus [36] = assay: Antibacterial activity against Staphylococcus aureus clinical isolate 13 assessed as growth inhibition at pH 5 after 16 to 18 hr by NCCLS agar dilution method
Staphylococcus aureus [37] = assay: Antibacterial activity against Staphylococcus aureus clinical isolate 6 assessed as growth inhibition at pH 5 after 16 to 18 hr by NCCLS agar dilution method
Staphylococcus aureus [38] = assay: Antibacterial activity against Staphylococcus aureus clinical isolate 1 assessed as growth inhibition at pH 5 after 16 to 18 hr by NCCLS agar dilution method
Staphylococcus aureus [39] = assay: Antibacterial activity against methicillin-resistant Staphylococcus aureus isolate 4 assessed as growth inhibition after 16 to 18 hr by NCCLS agar dilution method
Staphylococcus aureus [40] = assay: Antibacterial activity against methicillin-resistant Staphylococcus aureus isolate 2 assessed as growth inhibition after 16 to 18 hr by NCCLS agar dilution method

CO/N=C/CC(=O)c1ccc(OC)cc1
32 mg/L: MIC (Staphylococcus aureus [14]) | MIC (Staphylococcus aureus [15]) | MIC (Staphylococcus aureus [17]) | MIC (Helicobacter pylori [31]) | MIC (Helicobacter pylori [33]) | MIC (Staphylococcus aureus [36])
> 64 mg/L: MIC (Pseudomonas aeruginosa) | MIC (Escherichia coli)
16 mg/L: MIC (Staphylococcus aureus [2]) | MIC (Staphylococcus aureus [4]) | MIC (Staphylococcus aureus [5]) | MIC (Staphylococcus aureus [7]) | MIC (Staphylococcus aureus [8]) | MIC (Staphylococcus aureus [9]) | MIC (Staphylococcus aureus [12]) | MIC (Staphylococcus aureus [13]) | MIC (Staphylococcus aureus [16]) | MIC (Staphylococcus aureus [25]) | MIC (Helicobacter pylori [29]) | MIC (Helicobacter pylori [30]) | MIC (Helicobacter pylori [32]) | MIC (Staphylococcus aureus [35])
64 mg/L: MBC (Staphylococcus aureus [6]) | MIC (Staphylococcus aureus [34]) | MIC (Staphylococcus aureus [37]) | MIC (Staphylococcus aureus [38])
8 mg/L: MIC (Staphylococcus aureus [1]) | MIC (Staphylococcus aureus [3]) | MIC (Staphylococcus aureus [10]) | MIC (Staphylococcus aureus [11]) | MIC (Staphylococcus aureus [18]) | MIC (Staphylococcus aureus [19]) | MIC (Staphylococcus aureus [20]) | MIC (Staphylococcus aureus [21]) | MIC (Staphylococcus aureus [22]) | MIC (Staphylococcus aureus [23]) | MIC (Staphylococcus aureus [24]) | MIC (Staphylococcus aureus [26]) | MIC (Staphylococcus aureus [27]) | MIC (Staphylococcus aureus [28]) | MIC (Staphylococcus aureus [39]) | MIC (Staphylococcus aureus [40])

Source: ChEMBL document CHEMBL3045868, “Synthesis and antibacterial activities of para-alkoxy phenyl--ketoaldehyde derivatives” (Med Chem Res, 2013)
